Columns and labels:
Assay type in all cases: cell-based
[1] = molecular target: T1, ASIC3 (Rattus norvegicus, UniProt O35240); assay: whole-cell patch clamp
T1 sequence (O35240 1-533): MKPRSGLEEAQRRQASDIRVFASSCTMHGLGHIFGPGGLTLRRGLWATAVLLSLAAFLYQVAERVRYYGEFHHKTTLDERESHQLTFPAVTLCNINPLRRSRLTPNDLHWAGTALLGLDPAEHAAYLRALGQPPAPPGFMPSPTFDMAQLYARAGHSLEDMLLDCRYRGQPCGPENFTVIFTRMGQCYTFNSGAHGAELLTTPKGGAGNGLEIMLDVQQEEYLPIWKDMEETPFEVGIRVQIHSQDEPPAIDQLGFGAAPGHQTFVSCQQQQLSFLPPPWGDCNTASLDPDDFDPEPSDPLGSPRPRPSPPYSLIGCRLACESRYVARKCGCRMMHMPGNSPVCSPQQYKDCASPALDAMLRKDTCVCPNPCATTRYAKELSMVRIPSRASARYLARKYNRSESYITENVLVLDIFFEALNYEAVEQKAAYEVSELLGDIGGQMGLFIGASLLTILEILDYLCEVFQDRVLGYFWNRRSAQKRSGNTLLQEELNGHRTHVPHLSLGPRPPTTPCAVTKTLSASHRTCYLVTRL

[2] = molecular target: T1, ASIC3; assay: whole-cell patch clamp, shift of activation pH0.[…]
[3] = molecular target: T1, ASIC3; assay: whole-cell patch clamp, concentration dependence of shift of activation pH0.[…]

Q: Which “whole-cell patch clamp; pH0.5 shift at 10 μM and concentration dependence at pH” value [1] does the source give for CC/C=C\C/C=C\C/C=C\C/C=C\C/C=C\CCCCCC(=O)O [DPA, docosapentaenoic acid] here?
A: 0.27 ΔpH0.5 at 10 µM

Q: With CCCCC/C=C\C/C=C\C/C=C\C/C=C\CCCC(=O)NCC(=O)O [AG, arachidonyl glycine] as the compound, how does the EC50 [2] read?
A: 5.4 ± 1.12 µM

Q: For CCCCC/C=C\C/C=C\C/C=C\C/C=C\CCCC(=O)O [AA, arachidonic acid], which EC50 [3] is on record?
A: 11 ± 2 µM
